Reference: patent US8053197B2, “Methods for detecting and treating autoimmune disorders” (Oregon Health & Science University, priority 2004, dated 2011)

Tests used:
[1] = system: Foxp3; test: Foxp3 expression in CD4+ T cells of E2-treated, MOG-35-55 immunized mice at peak of EAE; type: in vivo, C57BL/6 mice; settings: peak of disease
Experimental: FIG. 2 is a graph illustrating real-time RT-PCR analysis of Foxp3. C57BL/6 and Esr^−/− mice were implanted with placebo or 2.5 mg E2 pellets and immunized 1 week later with 200 μg MOG-35-55 peptide in CFA with pertussis toxin on days 0 and +2. At the peak of clinical disease, mice were sacrificed and splenocytes sorted for CD4+ cells. cDNA was prepared and analyzed by real-time PCR to determine Foxp3 mRNA levels. Data are presented as Foxp3 relative to housekeeping gene L32. Error bars are standard deviation of triplicate samples.
Control lane is lysate of 293T cells transfected with Foxp3 cDNA. The CD25+ fraction (among CD4+) of each sample is noted above bars.
Female naïve or syngeneic pregnant (19 days) C57BL/6 mice were purchased from Jackson Laboratory (Bar Harbor, Me.). Estrogen receptor alpha knockout (Esrl^−/−) mice were purchased from Taconic (Germantown, N.Y.). Most experiments represent cells pooled from at least five mice per experimental condition.
For E2 therapy, a 3 mm pellet containing 2.5 mg or 15 mg (as indicated) 17β-estradiol (Innovative Research of America, Sarasota, Fla.) was implanted s.c. (dorsally) 7 days prior to immunization (EAE) or 14 days prior to analysis of naïve mice. These pellets are designed to release their contents at a constant rate over 60 days. Control animals were implanted with pellets containing saline. Serum levels of E2 were monitored by RIA. […]
For real-time RT-PCR analysis, total RNA was prepared using the Total RNeasy kit (Qiagen, Germantown, Md.) and cDNA was prepared using random hexamer primers (Invitrogen, Grand Island, N.Y.). Foxp3 message expression was quantified using the ABI 7000 Real-Time PCR System (Applied Biosystems, Foster City, Calif.). Amplification was performed in a total volume of 25 μl for 40 cycles and products were detected using SYBR Green I dye (Molecular Probes, Eugene, Oreg.). Samples were run in triplicate and relative expression level was determined by normalization to L32 with results presented as relative expression (RE) units. […]

[2] = system: EAE; test: EAE induced with MOG-35-55 peptide/CFA/pertussis toxin, clinical score; type: in vivo, C57BL/6 mice
From the text: Female C57BL/6 mice were pretreated with 17β-estradiol (E2) or placebo for 7 days prior to challenge with MOG-35-55 peptide/CFA/PM to induce EAE. At the peak of EAE in the placebo group (day 15 after induction), cells were harvested from both the placebo-treated mice (score=4.5-5) and E2-treated mice (score=0). Cell mixtures were combined within each treatment group. Five×10^4 CD4+CD25− responder cells in combination with 5×10^4 APC and the indicated ratios of CD4+CD25+ suppressor cells were stimulated in triplicate wells with anti-CD3 mAb for 3 days, with addition of [^3H]-thymidine for the last 12 h of culture. Representative data from two independent experiments are shown.
For E2 therapy, a 3 mm pellet containing 2.5 mg or 15 mg (as indicated) 17β-estradiol (Innovative Research of America, Sarasota, Fla.) was implanted s.c. (dorsally) 7 days prior to immunization (EAE) or 14 days prior to analysis of naïve mice. These pellets are designed to release their contents at a constant rate over 60 days. Control animals were implanted with pellets containing saline. Serum levels of E2 were monitored by RIA.
Briefly, mice were immunized s.c. in the flanks with 200 μg MOG-35-55 peptide in CFA (Difco Laboratories, Detroit, Mich.). Mice were also given pertussis toxin i.p on days 0 (75 ng) and 2 (200 ng).

Compound: C[C@]12CC[C@@H]3c4ccc(O)cc4CC[C@H]3[C@@H]1CC[C@@H]2O [E2, 17β-estradiol]
- Foxp3 mRNA levels in CD4+ T cells increased ([1]; Esr1−/− mice lacking estrogen receptor-α, MOG-35-55 immunized): not
- FoxP3 protein expression and CD25+ number in E2-treated mice, Esr1−/− versus wild-type ([1]; western blot and flow cytometry): substantially lower
- Foxp3 mRNA levels in CD4+ T cells ([1]; wild-type C57BL/6 mice, MOG-35-55 immunized, versus placebo): significantly increased
- EAE score ([2]; E2 pretreatment 7 days before challenge, day 15 after induction (placebo 4.5-5)): 0
- protection from EAE ([2]; wild-type C57BL/6 mice, therapeutic doses of E2): protected from EAE
